In patent publication US7884133B2, “Pharmaceutical compositions containing (+) cannabidioil and derivatives thereof and some such novel derivatives” (priority 2003, dated 2011):
Entries after “also recorded” stand apart in the source; their conditions may differ.

How the values were obtained:
[1] = tested on: CB1−/− receptor knockout mice; assay: Central effects in CB1−/− receptor knockout mice; assay type: in vivo; conditions: not shown
Protocol: (§1) Female Sabra mice (2-3 months of age) were purchased from Harlan, Israel. Breeding pairs of CB1−/− receptor knockout mice were provided by Prof. A. Zimmer, University Clinic Bonn, Germany.
(§2) Mice were injected with antagonist 90 minutes before testing and/or with agonist 60 minutes before testing in a series of four assays which reflect central cannabinoid activity [Martin (1991) id. ibid.; modified by Fride, E. and R. Mechoulam (1993) id. ibid.]. This “tetrad” consists of, consecutively, ambulation and rearing in an open field (8 minutes), immobility on an elevated ring of 5 cm diameter (4 minutes), rectal temperature (Yellow

female Sabra mice [2] = assay: Hot plate analgesia (centrally mediated pain); assay type: in vivo
Protocol: (§3) Pain perception on a hot plate, is considered to be mediated by a central mechanism whereas the second, late phase of the response to an implantar injection of formalin reflects inflammatory pain mechanisms [Tjolsen, A. and Hole (1997) id. ibid.].
(§4) Thus, central pain perception was assessed by the analgesic response on a hot plate (55° C., Columbus Instruments, OH, USA). Peripheral pain was measured by the response to implantar injection of formalin (4%) 45 minutes after injection of the drug.

female Sabra mice [3] = assay: Tetrad: rearing (vertical movements) in an open field; assay type: in vivo; conditions: 20 mg/kg i.p.
Protocol: as §2

[4] = tested on: arachidonic acid-induced ear inflammation in the mouse; assay: Arachidonic acid induced inflammation of the external ear; assay type: in vivo; conditions: for potency compared to indomethacin in ear inflammation, in words: (+)-CBD-DMH 40 or 10 mg/kg vs indomethacin 20 mg/kg
Protocol: Ear inflammation was measured by assessing ear tissue swelling after topical application of arachidonic acid, as described previously [Hanus (1999) id. ibid.]. Briefly, at various times after i.p. drug injections, arachidonic acid was applied to the inner surface of one ear (4.5 mg dissolved in […] ethanol). The opposite ear served as control (5 ethanol). Ear thickness was determined (in 0.01-mm units) by using a dial thickness gauge (Mitutoyo, Japan) every 15 minutes for 90 minutes, starting immediately after arachidonic acid application.

CB1 receptor = CB1 receptor (Rattus norvegicus, UniProt P20272); conditions: cited from earlier work
Sequence of CB1 receptor (P20272 whole entry): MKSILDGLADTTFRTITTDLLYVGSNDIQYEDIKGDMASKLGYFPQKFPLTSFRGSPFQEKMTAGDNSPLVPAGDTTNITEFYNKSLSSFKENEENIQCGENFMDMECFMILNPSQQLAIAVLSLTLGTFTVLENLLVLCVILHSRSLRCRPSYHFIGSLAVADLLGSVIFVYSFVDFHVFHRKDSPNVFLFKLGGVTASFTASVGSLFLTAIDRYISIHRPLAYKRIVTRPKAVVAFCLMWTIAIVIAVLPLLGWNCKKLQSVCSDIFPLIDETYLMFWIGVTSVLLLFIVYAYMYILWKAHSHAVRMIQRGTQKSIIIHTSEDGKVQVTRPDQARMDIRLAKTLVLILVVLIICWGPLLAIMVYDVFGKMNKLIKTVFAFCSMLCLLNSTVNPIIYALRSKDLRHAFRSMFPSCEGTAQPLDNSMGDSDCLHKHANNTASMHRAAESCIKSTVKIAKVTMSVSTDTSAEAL

[5] = tested on: formalin-induced peripheral pain in mice; assay: Formalin-induced peripheral pain (second phase); assay type: in vivo; conditions: formalin 4% in hind footpad, 45 minutes after drug; paw licks over 60 minutes
Protocol: Formalin (4%) was injected in the left hind footpad and the number of licks of the injected foot were recorded for each 5 minutes interval for the 60 minutes starting immediately after formalin application.
as §3, §4

CB2 receptor = CB2 receptor (Homo sapiens, UniProt P34972); conditions: cited from earlier work
Sequence of CB2 receptor (P34972 whole entry): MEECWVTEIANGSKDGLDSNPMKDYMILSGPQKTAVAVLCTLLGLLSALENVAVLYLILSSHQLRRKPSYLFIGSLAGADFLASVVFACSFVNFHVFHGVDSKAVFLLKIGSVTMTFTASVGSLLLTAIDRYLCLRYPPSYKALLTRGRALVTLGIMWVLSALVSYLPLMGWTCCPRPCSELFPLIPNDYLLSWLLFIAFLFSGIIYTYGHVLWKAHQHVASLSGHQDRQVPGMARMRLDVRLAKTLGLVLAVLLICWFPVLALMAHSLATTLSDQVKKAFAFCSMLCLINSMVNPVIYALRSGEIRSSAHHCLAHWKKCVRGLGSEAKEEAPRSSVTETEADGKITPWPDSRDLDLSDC

female Sabra mice [6] = assay: Tetrad: catalepsy (immobility) on an elevated ring; assay type: in vivo; conditions: 20 mg/kg i.p., elevated ring 4 min; normalized; * = P<0.05 vs vehicle
Protocol: as §2

[7] = tested on: CB1−/− receptor knockout mice; assay: Intestinal motility in CB1−/− receptor knockout mice; assay type: in vivo; conditions: 20 mg/kg i.p., defecation rate recorded for 3 hours
Protocol: Female CB1−/− knockout mice were injected i.p. with (+)-7-OH-CBD-DMH, (+)-CBD-DMH or Δ^9-THC (20 mg/kg). Intestinal motility (defecation rate) was recorded for a period of 3 hours.
as §1
(§5) Defecation was measured as the number of fecal pellets voided in the open field. In some experiments (as indicated below), fecal pellets and body temperature were assessed for a prolonged period (3 hr).

female Sabra mice [8] = assay: Tetrad overall (central cannabinoid activity); assay type: in vivo; conditions: 20 mg/kg i.p., tested 60 minutes later
Protocol: Central activity of the compounds of the invention was assessed in the “tetrad”, which is a series of assays commonly used to measure central cannabimimmetic effects [Martin, B. R. et al. (1991) Pharmacol. Biochem. Behav. 40(3): 471-8; Fride, E. and C. Sanudo-Pena (2002) id. ibid.]. Three parameters for peripheral activity were used. Since gastrointestinal transit is regulated locally in the periphery rather than by centrally located CB1 receptors [Izzo (2000) id. ibid.; Landi (2002) id. ibid.], intestinal motility was one of the parameters used, and peripheral cannabinoid effects was measured as rates of defecation (see Example 29).
as §2

female Sabra mice [9] = assay: Intestinal motility (defecation, number of fecal pellets); assay type: in vivo; conditions: 20 mg/kg i.p.
Protocol: as §5

female Sabra mice [10] = assay: Tetrad: ambulation (horizontal movements) in an open field; assay type: in vivo; conditions: 20 mg/kg i.p., open field 8 min, 30 or 60 min after injection; normalized; * = P<0.05 vs vehicle
Protocol: as §2

female Sabra mice [11] = assay: Hypothermia (rectal temperature); assay type: in vivo; conditions: 20 mg/kg i.p., * = P<0.05 vs vehicle
Protocol: as §2, §5

female Sabra mice [12] = assay: Intestinal motility after antagonist pre-treatment (SR141716A, SR144528, capsazepine); assay type: in vivo; conditions: for reversal of inhibition of defecation by CB1 antagonist SR141716A / reversal of inhibition of defecation by CB2 antagonist SR144528: agonist 20 mg/kg; for reversal of inhibition of defecation by CB1 antagonist SR141716A: SR141716A 1 mg/kg i.p. 30 minutes before agonist; for reversal of inhibition of defecation by CB2 antagonist SR144528: SR144528 1 or 3 mg/kg i.p. 30 minutes before agonist
Protocol: (SR1, 1 mg/kg). SR1 was injected (i.p.) 30 minutes before the agonist. 60 minutes after (+)CBD-DMH the number of fecal pellets was recorded.
(SR2, 1 mg/kg). SR2 was injected (i.p.) 30 minutes before the agonist. 60 minutes after (+)-CBD-DMH the number of fecal pellets was recorded.
as §2, §5

C=C(C)C1CCC(C)=CC1c1c(O)cc(C(C)(C)CCCCCC)cc1O (single isomer, unassigned; (+)) [+CBD−DMH, (+)-CBD-DMH]
central effects in CB1−/− receptor knockout mice [1]: None of the drugs assessed ((+)-CBD-DMH, (+)-7-OH-CBD-DMH and Δ^9-THC had any effect
centrally mediated pain on hot plate, in words (female Sabra mice [2]; 20 mg/kg): not active; also recorded: not affected
Analgesia (Hot Plate) (% MPE) (female Sabra mice [2]; 20 mg/kg i.p., hot plate 55° C., max 45 sec, normalized, * = P<0.05 vs vehicle): 10 % MPE
effect on rearing in an open-field, in words (female Sabra mice [3]): modest effect
Vertical Movements (% MPE) (female Sabra mice [3]; open field 8 min, normalized, * = P<0.05 vs vehicle): 61 % MPE
potency compared to indomethacin in ear inflammation, in words ([4]; listed as (+) CBD-DMH): as effective as indomethacin
potency compared to indomethacin in ear inflammation, in words ([4]; listed as (+)-CBD-DMH): equal potency as indomethacin; also recorded: as potent as indomethacin
potency compared to indomethacin in ear inflammation, in words ([4]; listed as (+)CBD-DMH): Equal potencies
inhibition of arachidonic acid-induced ear inflammation, in words ([4]; i.p., 10 to 40 mg/kg, ear thickness every 15 minutes for 90 minutes): almost completely inhibited
Ki (CB1 receptor; first value of CB1/CB2 cell, data from Bisogno et al., 2001, read-out: CB1 Receptor Binding (Ki)): 17 nM
Kd (CB1 receptor; previously reported, Bisogno et al. 2001, read-out: affinity for the CB1 receptor (Kd)): 17.4 nM
second (inflammatory) phase of formalin-induced pain, in words [5]: completely inhibited the second phase; also recorded: almost completely inhibited; also recorded: almost completely prevented the second phase of pain
Kd (CB2 receptor; previously reported, Bisogno et al. 2001, read-out: affinity for the CB2 receptor (Kd)): 211 nM
Ki (CB2 receptor; second value of CB1/CB2 cell, data from Bisogno et al., 2001, read-out: CB2 Receptor Binding (Ki)): 210 nM
Catalepsy (Freezing of Movement) (% MPE) (female Sabra mice [6]): 16 % MPE
effect on intestinal motility in CB1−/− knockout mice [7]: absence of inhibition of intestinal motility; also recorded: None of the drugs assessed ((+)-CBD-DMH, (+)-7-OH-CBD-DMH and Δ^9-THC had any effect; also recorded: no effects
central effects (tetrad), in words (female Sabra mice [8]): absence of central effects or small effects; also recorded: Lack of central effects
inhibition of defecation / intestinal motility, in words (female Sabra mice [9]; 60 minutes after injection): completely blocked
Inhibition of Intesitinal Motility (% MPE) (female Sabra mice [9]; defecation in open field 8 min, normalized, * = P<0.05 vs vehicle): 100* % MPE
Horizontal Movements (% MPE) (female Sabra mice [10]): 82 % MPE
Hypothermia (Δ-Body Temp.) (female Sabra mice [11]): −0.3 °C
reversal of inhibition of defecation by CB1 antagonist SR141716A (female Sabra mice [12]; listed as (+) CBD-DMH): almost fully reversed
reversal of inhibition of defecation by CB1 antagonist SR141716A (female Sabra mice [12]; listed as (+)-CBD-DMH): effectively antagonized; also recorded: partial reversal
reversal of inhibition of defecation by CB2 antagonist SR144528 (female Sabra mice [12]; listed as (+) CBD-DMH): not at all
reversal of inhibition of defecation by CB2 antagonist SR144528 (female Sabra mice [12]; listed as (+)-CBD-DMH): not at all; also recorded: did not prevent; also recorded: no reversal
effect of VR1 antagonist capsazepine on inhibition of defecation (female Sabra mice [12]; data not shown): did not affect
